Measurements taken from PubChem BioAssay (NCI).
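Protocol summary: plate cells (96-well), add compound at 5 concentrations, incubate 48 h, interpolate endpoints linearly. TGI denotes the concentration required for complete inhibition of growth.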

Tests used:
Assay in all cases: DTP human tumour cell line panel, 48 h
786-0 renal = tested on: 786-0 renal
A549 NSCLC = tested on: A549 NSCLC
BT-549 breast = tested on: BT-549 breast
MOLT-4 leukemia = tested on: MOLT-4 leukemia
HOP-92 NSCLC = tested on: HOP-92 NSCLC
K-562 leukemia = tested on: K-562 leukemia
MALME-3M melanoma = tested on: MALME-3M melanoma
HS 578T breast = tested on: HS 578T breast
KM12 colon = tested on: KM12 colon
SK-MEL-28 melanoma = tested on: SK-MEL-28 melanoma
CAKI-1 renal = tested on: CAKI-1 renal
HOP-62 NSCLC = tested on: HOP-62 NSCLC
U251 CNS = tested on: U251 CNS
UACC-257 melanoma = tested on: UACC-257 melanoma
A498 renal = tested on: A498 renal

Row | SMILES | TGI (786-0 renal) | TGI (A549 NSCLC) | TGI (BT-549 breast) | TGI (MOLT-4 leukemia) | TGI (HOP-92 NSCLC) | TGI (K-562 leukemia) | TGI (MALME-3M melanoma) | TGI (HS 578T breast) | TGI (KM12 colon) | TGI (SK-MEL-28 melanoma) | TGI (CAKI-1 renal) | TGI (HOP-62 NSCLC) | TGI (U251 CNS) | TGI (UACC-257 melanoma) | TGI (A498 renal)
1 | Cc1nc(Nc2nc3ccccc3[nH]2)[nH]c(=O)c1CCO | > 100 µM | > 100 µM | > 100 µM | > 100 µM | > 100 µM | > 100 µM | > 71.5 µM | > 100 µM | > 100 µM | > 100 µM | > 100 µM | > 100 µM | > 100 µM | > 100 µM | > 100 µM
2 | COc1cccc(C(=O)N[C@@H]2[C@H](O)[C@@H](CO)O[C@H]2n2cnc3c(N)ncnc32)c1 | > 100 µM | > 100 µM | > 100 µM | > 100 µM | > 100 µM | > 100 µM | > 100 µM | > 100 µM | > 100 µM | > 100 µM | > 100 µM | > 100 µM | > 100 µM | > 100 µM | > 100 µM
3 | O=C(O)CO/N=C1/C(c2c(O)[nH]c3ccccc23)=Nc2ccccc21 | > 100 µM | > 100 µM | > 100 µM | > 100 µM | > 100 µM | > 100 µM | 99.5 µM | > 100 µM | > 100 µM | > 100 µM | > 100 µM | > 100 µM | > 100 µM | > 100 µM | > 100 µM
4 | OC1(c2ccc3ccccc3c2)c2c(c3ccccc3c3ccccc23)C2=NCCN21 (stereo not given) | 25.3 µM | > 69.4 µM | > 37.3 µM | > 100 µM | 70.3 µM | > 100 µM | 38.1 µM | 24.2 µM | 6.12 µM | 6.09 µM | > 100 µM | 23.3 µM | 17.7 µM | > 63.5 µM | 44 µM
5 | Cc1cn2c(/C=C3/C(=O)Nc4ccccc43)c(C)nc2s1 | > 100 µM | 50.7 µM | > 100 µM | 15.2 µM | > 100 µM | 17.2 µM | > 100 µM | 7 µM | 29.7 µM | > 100 µM | > 100 µM | > 100 µM | 10.9 µM | > 100 µM | > 100 µM
6 | CCCCCCC(=O)OC[n+]1cccc(-c2c(COC(=O)NC(C)C)c(COC(=O)NC(C)C)c3n2CCC3)c1 | > 69.8 µM | > 100 µM | > 96.4 µM | > 80.7 µM | 66.4 µM | > 100 µM | 98.5 µM | > 100 µM | > 100 µM | > 100 µM | 47.8 µM | > 100 µM | > 100 µM | > 100 µM | 44.9 µM
7 | Nc1nc(NCCOCP(=O)(O)O)c(N)c(=O)[nH]1 | > 100 µM | > 100 µM | > 100 µM | > 100 µM | > 100 µM | > 100 µM | > 100 µM | > 100 µM | > 100 µM | > 100 µM | > 100 µM | > 100 µM | > 100 µM | > 100 µM | > 100 µM
8 | CC(C)(CN)SCc1ccccc1 | > 100 µM | > 100 µM | > 100 µM | > 100 µM | > 100 µM | > 100 µM | > 100 µM | > 100 µM | > 100 µM | > 100 µM | > 100 µM | > 100 µM | > 100 µM | > 100 µM | > 100 µM
9 | CC(=O)Nc1nnc(S(=O)(=O)NC(=S)Nc2ccc(Cl)cc2)s1 | > 100 µM | > 100 µM | > 100 µM | > 100 µM | > 100 µM | > 100 µM | > 100 µM | > 100 µM | > 100 µM | > 100 µM | > 100 µM | > 100 µM | > 100 µM | > 100 µM | > 100 µM
10 | CCOC(=O)c1ccc(Nc2cnc3ccc(C(F)(F)F)cc3n2)cc1 | 26.8 µM | 32.3 µM | 34 µM | 24.5 µM | 23.5 µM | 53.7 µM | 79.2 µM | 59.1 µM | 25.8 µM | 43 µM | 30.7 µM | 46.6 µM | 31.8 µM | 56 µM | 33.9 µM
11 | COc1ccccc1N1C(=O)CC(=O)N(C(=O)CCCCCCCCC(=O)N2C(=O)CC(=O)N(c3ccccc3OC)C2=S)C1=S | > 100 µM | > 100 µM | > 100 µM | > 100 µM | > 100 µM | > 100 µM | > 100 µM | > 100 µM | > 100 µM | > 100 µM | > 100 µM | > 100 µM | > 100 µM | > 100 µM | > 100 µM
12 | S=C(Nc1cccc(C2(N3CCCCC3)CCCCC2)c1)Nc1cccc(C2(N3CCCCC3)CCCCC2)c1 | 30.5 µM | > 100 µM | > 100 µM | 42.8 µM | 43.9 µM | 27.5 µM | 36.1 µM | > 100 µM | 33.2 µM | 35.3 µM | > 100 µM | > 100 µM | 50.4 µM | 33.4 µM | 35.1 µM
13 | C=CC[C@H]1[C@H](O[Si](C)(C)C(C)(C)C)C=CC(=O)[C@@H]1CC(=O)OCC | 27.6 µM | 23.9 µM | 30.3 µM | 48 µM | 24.2 µM | 20.4 µM | 25.9 µM | 43.4 µM | 27.2 µM | 34.6 µM | 25.1 µM | 34.5 µM | 27.8 µM | 17.9 µM | 26.6 µM
14 | Cc1cc(C(O)CNC(C)CCn2cnc3c2c(=O)n(C)c(=O)n3C)ccc1O (stereo not given) | > 100 µM | > 100 µM | > 100 µM | > 100 µM | > 100 µM | > 100 µM | > 100 µM | > 100 µM | > 100 µM | > 100 µM | > 100 µM | > 100 µM | > 100 µM | > 100 µM | > 100 µM
15 | O=c1c(Sc2ncccn2)c(Sc2ncccn2)cnn1CCl | 4.79 µM | 35.5 µM | 31 µM | 10.6 µM | 7.38 µM | 20.5 µM | 4.25 µM | 37 µM | 29.1 µM | 12.7 µM | 5.89 µM | 8.05 µM | 19.7 µM | 6.77 µM | 36.3 µM
16 | CC1(C)CC2(C)ON=C(c3ccccc3)N2c2ccccc2N1 (stereo not given) | 57.3 µM | > 100 µM | 36.9 µM | 75.6 µM | 61.4 µM | 52.3 µM | 55.3 µM | 42.6 µM | > 100 µM | 57.5 µM | 60.2 µM | 37 µM | 41.1 µM | 58.3 µM | 54.4 µM
17 | CCOP(=O)(OCC)C(=C1C=C(C(C)(C)C)C(=O)C(C(C)(C)C)=C1)P(=O)(OCC)OCC | > 5.51 µM | > 10 µM | 5.16 µM | > 10 µM | 6.37 µM | > 7.45 µM | 3.38 µM | > 10 µM | > 10 µM | > 10 µM | > 6.25 µM | > 10 µM | > 10 µM | > 10 µM | > 10 µM
18 | Oc1ccc(Cn2c(-c3ccc(O)cc3)nc3ccccc32)cc1 | > 100 µM | > 100 µM | > 100 µM | > 100 µM | > 100 µM | > 100 µM | > 100 µM | > 100 µM | > 100 µM | > 100 µM | > 100 µM | > 100 µM | > 100 µM | > 100 µM | > 100 µM
19 | CC1=C(C)C(=O)C(C2=C(C3=CC(=O)C(C)=C(C)C3=O)C(=O)c3ccccc3C2=O)=CC1=O | 5.74 µM | 17.7 µM | 7.16 µM | 5.3 µM | 6.72 µM | 19.7 µM | 2.8 µM | 43.5 µM | 11.1 µM | 5.03 µM | 5.66 µM | 31.8 µM | 12.6 µM | 4.22 µM | 18.4 µM
20 | CCCc1cc(-c2ccc(-c3cc(CCC)c(C=O)[nH]3)s2)[nH]c1C=O | > 100 µM | 22.7 µM | > 100 µM | > 100 µM | > 100 µM | > 100 µM | > 100 µM | > 100 µM | > 100 µM | > 100 µM | > 100 µM | > 100 µM | > 100 µM | > 100 µM | > 100 µM
21 | CN1CCCC(C(=O)OCC(=O)C2(O)CCC3C4CCC5=CC(=O)CCC5(C)C4C(O)CC32C)C1 (stereo not given) | 14.3 µM | > 67.6 µM | 33.6 µM | 48.4 µM | > 100 µM | 28.7 µM | 33.2 µM | > 82.9 µM | > 69.7 µM | 35.4 µM | > 65.8 µM | 31 µM | 16 µM | 38.2 µM | 31.6 µM
22 | COc1ccc(N2C(=O)C3c4[nH]c5ccc(OCc6ccccc6)cc5c4C4CCC(C(C)C)CC4C3C2=O)cc1 (stereo not given) | > 47.6 µM | > 100 µM | > 60.4 µM | > 71.7 µM | 93.2 µM | > 68.3 µM | > 100 µM | > 49.8 µM | > 100 µM | > 100 µM | > 59.6 µM | 36.4 µM | > 73.1 µM | > 100 µM | 25.4 µM
23 | CC(=O)/C(=C(/Br)I)c1ccccc1 | 28 µM | 51.7 µM | 6.33 µM | 20.5 µM | 23.8 µM | > 31.6 µM | 23.1 µM | > 66 µM | 28.2 µM | 26.5 µM | 6.83 µM | 29.7 µM | 26.5 µM | 25.4 µM | 28.5 µM
